Experimental data from paper PMC9661477, “New Dual P-Glycoprotein (P-gp) and Human Carbonic Anhydrase XII (hCA XII) Inhibitors as Multidrug Resistance (MDR) Reversers in Cancer Cells” (Journal of Medicinal Chemistry, 2022).
Structures can show the parent of a compound that is named as a salt. Blank lines part the entries; values can stand above or below the molecule they belong to.

Legend:
[1] = molecular target: T1, MRP1 (Homo sapiens, UniProt P33527); experiment: calcein-AM transport inhibition in MDCK-MRP1 cells; type: cell-based; settings: NA, not active
T1 construct: expressed in transfected cells; host or cells: MDCK-MRP1 (Madin-Darby Canine Kidney, transfected; gift from Prof; P. Borst, NKI-AVL)
T1 sequence (P33527 whole entry): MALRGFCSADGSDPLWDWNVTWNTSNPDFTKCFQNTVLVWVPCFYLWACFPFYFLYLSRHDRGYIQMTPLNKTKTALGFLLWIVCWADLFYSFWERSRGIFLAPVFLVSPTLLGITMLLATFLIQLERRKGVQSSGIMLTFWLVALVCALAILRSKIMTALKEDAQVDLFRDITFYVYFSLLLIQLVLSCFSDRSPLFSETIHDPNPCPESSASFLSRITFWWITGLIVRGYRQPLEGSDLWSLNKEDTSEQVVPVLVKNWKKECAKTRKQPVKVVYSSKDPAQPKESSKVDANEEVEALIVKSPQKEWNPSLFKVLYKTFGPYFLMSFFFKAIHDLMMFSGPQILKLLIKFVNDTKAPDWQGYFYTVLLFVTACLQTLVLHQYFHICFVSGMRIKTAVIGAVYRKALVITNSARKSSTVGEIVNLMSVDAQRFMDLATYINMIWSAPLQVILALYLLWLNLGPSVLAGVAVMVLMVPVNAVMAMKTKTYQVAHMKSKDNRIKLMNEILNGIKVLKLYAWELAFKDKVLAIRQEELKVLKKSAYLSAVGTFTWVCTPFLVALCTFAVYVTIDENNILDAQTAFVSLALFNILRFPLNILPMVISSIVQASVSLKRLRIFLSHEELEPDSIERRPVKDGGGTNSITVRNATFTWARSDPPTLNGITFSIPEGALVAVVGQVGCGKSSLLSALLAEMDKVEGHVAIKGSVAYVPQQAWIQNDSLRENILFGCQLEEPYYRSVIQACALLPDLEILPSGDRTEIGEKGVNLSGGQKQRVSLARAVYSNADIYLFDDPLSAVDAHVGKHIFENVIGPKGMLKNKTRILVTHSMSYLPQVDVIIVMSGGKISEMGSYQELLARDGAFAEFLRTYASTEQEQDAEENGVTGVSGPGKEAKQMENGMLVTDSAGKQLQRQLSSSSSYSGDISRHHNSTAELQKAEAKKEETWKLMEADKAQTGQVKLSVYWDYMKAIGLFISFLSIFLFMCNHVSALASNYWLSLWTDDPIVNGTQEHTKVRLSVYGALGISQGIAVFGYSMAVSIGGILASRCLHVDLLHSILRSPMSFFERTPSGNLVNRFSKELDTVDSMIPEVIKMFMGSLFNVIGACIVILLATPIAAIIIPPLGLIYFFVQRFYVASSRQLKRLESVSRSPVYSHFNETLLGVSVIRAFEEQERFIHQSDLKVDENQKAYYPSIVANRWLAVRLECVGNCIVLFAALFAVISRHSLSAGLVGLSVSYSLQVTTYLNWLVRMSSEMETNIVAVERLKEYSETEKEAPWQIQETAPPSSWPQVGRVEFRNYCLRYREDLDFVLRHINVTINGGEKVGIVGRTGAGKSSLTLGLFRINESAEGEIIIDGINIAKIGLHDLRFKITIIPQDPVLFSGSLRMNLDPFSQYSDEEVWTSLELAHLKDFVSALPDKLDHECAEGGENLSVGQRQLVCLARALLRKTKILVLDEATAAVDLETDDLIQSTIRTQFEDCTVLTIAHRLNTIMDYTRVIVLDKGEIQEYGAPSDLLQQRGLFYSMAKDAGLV
Description: (§1) The inhibiting activity of the two compounds on P-gp and MRP1 was evaluated by measuring the transport inhibition of the profluorescent probe calcein-AM (P-gp and MRP1 substrate) in MDCK-MDR1 and MDCK-MRP1 cells (P-gp- and MRP1-overexpressing cells, respectively). The activity on BCRP was instead evaluated using the fluorescent probe Hoechst 33342 (BCRP substrate) in MDCK-BCRP cells (BCRP-overexpressing cells).[43]
(§2) MDCK-MDR1, MDCK-MRP1, and MDCK-BCRP cells are a gift from Prof. P. Borst, NKI-AVL Institute, Amsterdam, The Netherlands. Cells were grown in Dulbecco’s modified Eagle’s medium (DMEM) high glucose supplemented with 10% fetal bovine serum, 2 mM glutamine, 100 U/mL of penicillin, and 100 μg/mL of streptomycin in a humidified incubator at 37 °C with a 5% CO2 atmosphere. Cell culture reagents were purchased from Celbio s.r.l. (Milano, Italy). CulturePlate 96/wells plates were purchased from PerkinElmer Life Science (Waltham, MA) and Falcon (BD Biosciences, Bedford, MA). Calcein-AM and Hoechst 33342 (bisbenzimide H 33342 trihydrochloride) were obtained from Sigma-Aldrich (Milan, Italy). The other reagents were purchased from Sigma Merck Millipore.

[2] = tested on: HT29/DOX cells; experiment: intracellular accumulation of doxorubicin in HT29/DOX cells; type: cell-based, human; settings: 24 h with 5 μM doxorubicin, compound at 1 and 3 μM, dose-dependent
Description: (§3) A 50 μL aliquot was sonicated and used for the measurement of the protein content. […] Fluorescence was converted in nmol/mg cell proteins using a calibration curve previously set.

[3] = molecular target: T2, BCRP (Homo sapiens, UniProt Q9UNQ0); experiment: Hoechst 33342 transport inhibition in MDCK-BCRP cells; type: cell-based; settings: NA, not active
T2 construct: expressed in transfected cells; host or cells: MDCK-BCRP (Madin-Darby Canine Kidney, transfected; gift from Prof; P. Borst, NKI-AVL)
T2 sequence (Q9UNQ0 1-655): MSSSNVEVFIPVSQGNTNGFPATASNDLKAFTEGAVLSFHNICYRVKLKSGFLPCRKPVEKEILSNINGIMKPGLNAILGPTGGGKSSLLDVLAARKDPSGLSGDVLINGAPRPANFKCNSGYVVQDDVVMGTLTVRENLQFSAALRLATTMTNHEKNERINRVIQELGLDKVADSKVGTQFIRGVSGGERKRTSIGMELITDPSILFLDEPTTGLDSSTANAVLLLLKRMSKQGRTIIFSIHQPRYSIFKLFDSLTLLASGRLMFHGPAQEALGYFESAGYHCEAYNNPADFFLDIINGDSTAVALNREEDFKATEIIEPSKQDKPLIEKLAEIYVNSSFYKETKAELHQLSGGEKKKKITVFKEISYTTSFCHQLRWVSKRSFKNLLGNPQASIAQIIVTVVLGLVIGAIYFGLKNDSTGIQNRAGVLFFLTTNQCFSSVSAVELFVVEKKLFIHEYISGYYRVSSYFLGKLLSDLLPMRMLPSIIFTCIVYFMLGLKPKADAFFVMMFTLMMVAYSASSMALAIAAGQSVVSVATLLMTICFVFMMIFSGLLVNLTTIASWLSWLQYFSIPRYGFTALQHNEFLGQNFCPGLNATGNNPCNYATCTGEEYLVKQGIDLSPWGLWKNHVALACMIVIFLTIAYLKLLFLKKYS
Description: as §1, §2

[4] = molecular target: T3, P-gp (Homo sapiens, UniProt P08183); experiment: calcein-AM transport inhibition in MDCK-MDR1 cells; type: cell-based; settings: mean ± SEM
T3 construct: expressed in transfected cells; host or cells: MDCK-MDR1 (Madin-Darby Canine Kidney, transfected; gift from Prof; P. Borst, NKI-AVL)
T3 sequence (P08183 whole entry): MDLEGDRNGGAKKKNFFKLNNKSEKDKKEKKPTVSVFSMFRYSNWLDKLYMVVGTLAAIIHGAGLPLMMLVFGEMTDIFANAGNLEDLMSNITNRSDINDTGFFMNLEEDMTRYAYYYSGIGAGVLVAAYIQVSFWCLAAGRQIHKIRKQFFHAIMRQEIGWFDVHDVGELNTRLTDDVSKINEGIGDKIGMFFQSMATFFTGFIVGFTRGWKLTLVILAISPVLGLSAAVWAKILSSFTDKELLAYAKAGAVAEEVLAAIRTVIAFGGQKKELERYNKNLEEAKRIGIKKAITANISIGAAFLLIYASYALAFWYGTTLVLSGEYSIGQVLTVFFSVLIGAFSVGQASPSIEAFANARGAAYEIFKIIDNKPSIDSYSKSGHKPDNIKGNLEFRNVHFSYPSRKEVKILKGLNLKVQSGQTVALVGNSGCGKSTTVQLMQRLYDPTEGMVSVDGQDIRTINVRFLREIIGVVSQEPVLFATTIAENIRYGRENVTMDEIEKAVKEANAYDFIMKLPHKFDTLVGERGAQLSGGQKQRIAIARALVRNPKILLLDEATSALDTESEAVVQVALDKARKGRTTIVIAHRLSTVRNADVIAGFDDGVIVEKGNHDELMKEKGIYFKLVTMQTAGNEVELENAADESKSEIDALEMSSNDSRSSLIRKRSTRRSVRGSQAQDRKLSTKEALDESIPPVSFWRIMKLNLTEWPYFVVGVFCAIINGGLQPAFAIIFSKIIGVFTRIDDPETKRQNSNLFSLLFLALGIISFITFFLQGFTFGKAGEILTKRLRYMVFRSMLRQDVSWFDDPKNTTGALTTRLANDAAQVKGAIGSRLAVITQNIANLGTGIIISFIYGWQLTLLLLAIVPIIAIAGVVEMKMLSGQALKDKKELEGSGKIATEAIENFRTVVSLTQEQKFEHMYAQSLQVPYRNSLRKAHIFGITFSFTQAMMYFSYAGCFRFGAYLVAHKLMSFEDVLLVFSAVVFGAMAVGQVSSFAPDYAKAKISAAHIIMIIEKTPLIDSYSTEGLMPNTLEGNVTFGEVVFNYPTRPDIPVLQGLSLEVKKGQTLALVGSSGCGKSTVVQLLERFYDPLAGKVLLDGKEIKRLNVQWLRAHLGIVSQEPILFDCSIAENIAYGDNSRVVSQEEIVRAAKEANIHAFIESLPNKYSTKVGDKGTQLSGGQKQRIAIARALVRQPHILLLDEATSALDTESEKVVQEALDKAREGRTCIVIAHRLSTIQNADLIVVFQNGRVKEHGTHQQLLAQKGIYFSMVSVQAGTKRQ
Description: as §1, §2

[5] = tested on: P-gp KO A549/DOX cells; experiment: intracellular accumulation of doxorubicin in P-gp KO A549/DOX cells; type: cell-based, human; settings: 24 h with 5 μM doxorubicin, compound at 1 and 3 μM
Description: as §3

[6] = molecular target: hCA IX (Homo sapiens, UniProt Q16790); experiment: stopped-flow CO2 hydrase assay, hCA IX; settings: read-out: Ki hCA IX; stopped-flow technique, mean from three different assays
Description: (§4) An SX.18MV-R Applied Photophysics (Oxford, U.K.) stopped-flow instrument has been used to assay the catalytic/inhibition of various CA isozymes.[38] […] The inhibition constants were obtained by nonlinear least-squares methods using the Cheng–Prusoff equation, as reported earlier,[32] and represent the mean from at least three different determinations.

[7] = tested on: A549/DOX cells; experiment: intracellular accumulation of doxorubicin in A549/DOX cells; type: cell-based, human; settings: 24 h with 5 μM doxorubicin, compound at 1 and 3 μM, dose-dependent
Description: as §3

[8] = molecular target: hCA II (Homo sapiens, UniProt P00918); experiment: stopped-flow CO2 hydrase assay, hCA II; settings: read-out: Ki hCA II; stopped-flow technique, mean from three different assays
Description: as §4

[9] = tested on: P-gp KO HT29/DOX cells; experiment: intracellular accumulation of doxorubicin in P-gp KO HT29/DOX cells; type: cell-based, human; settings: 24 h with 5 μM doxorubicin, compound at 1 and 3 μM
Description: as §3

[10] = molecular target: hCA I (Homo sapiens, UniProt P00915); experiment: stopped-flow CO2 hydrase assay, hCA I; settings: read-out: Ki hCA I; stopped-flow technique, mean from three different assays
Chain of hCA I (P00915 whole entry): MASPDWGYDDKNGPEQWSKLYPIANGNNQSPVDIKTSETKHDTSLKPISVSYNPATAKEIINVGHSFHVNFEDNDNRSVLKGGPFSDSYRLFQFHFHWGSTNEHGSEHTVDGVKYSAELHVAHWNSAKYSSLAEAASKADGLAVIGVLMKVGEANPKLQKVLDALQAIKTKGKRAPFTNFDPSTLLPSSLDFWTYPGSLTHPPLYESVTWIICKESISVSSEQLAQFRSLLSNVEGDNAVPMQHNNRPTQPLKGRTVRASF
Description: as §4

[11] = stability in human plasma, LC-MS/MS; type: in vitro ADME; settings: reference compound, read-out: half-life (t1/2)
Description: The chemical stability of all of these diester derivatives was evaluated in phosphate-buffered solution (PBS) and human plasma samples. The stability analyses were performed by liquid chromatography coupled with a triple quadrupole mass spectrometry system (LC-MS/MS), operating in multiple reaction monitoring (MRM) mode. The LC-MS/MS instrument and parameters used are reported in the Supporting Information.
In these assays, we monitored the variation of our diester molecules’ concentration at four different incubation times both in PBS and in human plasma samples to evaluate their susceptibility toward spontaneous or enzymatic hydrolysis, respectively. By plotting any variation of analyte concentration vs the incubation time, the corresponding degradation profiles in both the tested matrices were obtained. […] Therefore, by plotting the natural logarithm of the quantitative data versus the incubation time, a linear function can be used, and its slope represents the degradation rate constant (k). Accordingly, with the linear function, the half-life (t1/2) of each tested compound can be calculated as follows [drawing 1] […]
Each set of samples was incubated in triplicate at four different times, 0, 30, 60, and 120 min at 37 °C. […] The obtained sample solutions were analyzed by LC-MS/MS methods described in the Supporting Information.

Structure (SMILES): CCOC(=O)C(C)c1cccc(C(=O)c2ccccc2)c1 (centres unmarked) [KEE, ketoprofen ethyl ester]
half-life at 1 μM [11]: ≤ 2 h

Structure (SMILES): COc1cc(/C=C/C(=O)OCCCCCN(CCCOC(=O)/C=C/c2cc(OC)c(OC)c(OC)c2)CCCOc2ccc3ccc(=O)oc3c2)cc(OC)c1OC (as salt: hydrochloride) [Compound 1, (E)-5-((3-((2-Oxo-2H-chromen-7-yl)oxy)propyl)(3-(((E)-3-(3,4,5-trimethoxyphenyl)acryloyl)oxy)propyl)amino)pentyl 3-(3,4,5-Trimethoxyphenyl)acrylate]
melting point: 81 to 84 °C

Structure (SMILES): COc1cc(C(=O)OCCCN(CCCCCOC(=O)c2c3ccccc3cc3ccccc23)CCCOc2ccc3ccc(=O)oc3c2)cc(OC)c1OC (as salt: hydrochloride) [Compound 8, 5-((3-((2-Oxo-2H-chromen-7-yl)oxy)propyl)(3-((3,4,5-trimethoxybenzoyl)oxy)propyl)amino)pentyl Anthracene-9-carboxylate]
melting point: 120 to 123 °C

Structure (SMILES): COc1cc(/C=C/C(=O)OCCCCCCCN(CCCOC(=O)/C=C/c2cc(OC)c(OC)c(OC)c2)CCCOc2ccc3ccc(=O)oc3c2)cc(OC)c1OC (as salt: hydrochloride) [Compound 19, (E)-7-((3-((2-Oxo-2H-chromen-7-yl)oxy)propyl)(3-(((E)-3-(3,4,5-trimethoxyphenyl)acryloyl)oxy)propyl)amino)heptyl 3-(3,4,5-Trimethoxyphenyl)acrylate]
melting point: 90 to 92 °C

Second part, led by results:

EC50 MRP1 [1]: completely inactive | EC50 BCRP [3]: completely inactive | EC50 [4]: 150 ± 20 nM | Ki [6]: 40.7 nM | Ki [8]: > 10000 nM | Ki [10]: > 10000 nM
Structure (SMILES): COc1cc(C(=O)OCCCCCN(CCCOC(=O)c2cc(OC)c(OC)c(OC)c2)CCCOc2ccc3ccc(=O)oc3c2)cc(OC)c1OC [Compound 5, 5-((3-((2-Oxo-2H-chromen-7-yl)oxy)propyl)(3-((3,4,5-trimethoxybenzoyl)oxy)propyl)amino)pentyl 3,4,5-Trimethoxybenzoate]
intracellular retention of doxorubicin [2]: increased | intracellular retention of doxorubicin [5]: did not significantly increase | intracellular retention of doxorubicin [7]: increased | intracellular retention of doxorubicin [9]: did not significantly increase

EC50 MRP1 [1]: completely inactive | EC50 BCRP [3]: completely inactive | EC50 [4]: 180 ± 30 nM | Ki [6]: 82.7 nM | Ki [8]: > 10000 nM | Ki [10]: > 10000 nM
Structure (SMILES): COc1cc(C(=O)OCCCCCCN(CCCOC(=O)c2cc(OC)c(OC)c(OC)c2)CCCOc2ccc3ccc(=O)oc3c2)cc(OC)c1OC [Compound 14, 6-((3-((2-Oxo-2H-chromen-7-yl)oxy)propyl)(3-((3,4,5-trimethoxybenzoyl)oxy)propyl)amino)hexyl 3,4,5-Trimethoxybenzoate]
intracellular retention of doxorubicin [2]: increased | intracellular retention of doxorubicin [5]: did not significantly increase | intracellular retention of doxorubicin [7]: increased | intracellular retention of doxorubicin [9]: did not significantly increase

melting point: 74 to 77 °C
Structure (SMILES): COc1cc(C(=O)OCCCCCCCN(CCCOC(=O)c2cc(OC)c(OC)c(OC)c2)CCCOc2ccc3ccc(=O)oc3c2)cc(OC)c1OC (as salt: hydrochloride) [Compound 23, 7-((3-((2-Oxo-2H-chromen-7-yl)oxy)propyl)(3-((3,4,5-trimethoxybenzoyl)oxy)propyl)amino)heptyl 3,4,5-Trimethoxybenzoate]

melting point: 78 to 81 °C
Structure (SMILES): COc1cc(/C=C/C(=O)OCCCN(CCCCCCOC(=O)c2cc(OC)c(OC)c(OC)c2)CCCOc2ccc3ccc(=O)oc3c2)cc(OC)c1OC (as salt: hydrochloride) [Compound 13, (E)-6-((3-((2-Oxo-2H-chromen-7-yl)oxy)propyl)(3-((3-(3,4,5-trimethoxyphenyl)acryloyl)oxy)propyl)amino)hexyl 3,4,5-Trimethoxybenzoate]
